Values of other authors, collected in PMC6311893, “Computational prediction of plasma protein binding of cyclic peptides from small molecule experimental data using sparse modeling techniques” (BMC Bioinformatics, 2018).

tested on: plasma protein; conditions: fraction bound to plasma protein; small molecule dataset, sheet 1-SM (Set Dte = test, Dtr = training); ref Ingle et al.; cited from earlier work

Compound | PPB (fb)
COc1ccc(-n2cc(C(=O)O)c(=O)c3cc(F)c(N4CCN(C)CC4)cc32)cc1 [5ca (p-OCH3__N-CH3)] | 0.43
O=C1NCCN1c1ncc([N+](=O)[O-])s1 [niridazole] | 0.85
NS(=O)(=O)Cc1noc2ccccc12 [zonisamide] | 0.4
COc1cc2nc(N(C)CCCNC(=O)C3CCCO3)nc(N)c2cc1OC (stereo not shown) [alfuzosin] | 0.9
O=C(O)c1cn(-c2ccc(O)cc2)c2cc(N3CCNCC3)c(F)cc2c1=O [8c(p-OH)] | 0.35
NCCCNCCSP(=O)(O)O [amifostine] | 0.04
CN(C)CCCOc1nn(Cc2ccccc2)c2ccccc12 [benzydamine] | 0.1
COc1ccc(C(=O)N2CCCC2=O)cc1 [aniracetam] | 0.66
CC1(C)SC2C(NC(=O)C(N=[N+]=[N-])c3ccccc3)C(=O)N2C1C(=O)O (stereo not shown) [azidocillin] | 0.8
CCOC(=O)/C=C(C)/C=C/C=C(C)/C=C/c1c(C)cc(OC)c(C)c1C [etretinate] | 0.99
N=C(N)c1ccc(C(=O)N[C@@H](Cc2ccc(O)cc2)C(=O)N2CCC(OCC(=O)O)CC2)cc1 [Lamifiban] | 0.06
COc1ccc2[nH]c([S+]([O-])Cc3ncc(C)c(OC)c3C)nc2c1 (stereo not shown) [Omeprazole] | 0.96
CCOC(=O)[C@H](CCc1ccccc1)N[C@H]1CCc2ccccc2N(CC(=O)O)C1=O [benazepril] | 0.96
COc1ccccc1OCCNCC(O)c1ccc(C)c(S(N)(=O)=O)c1 (stereo not shown) [amosulalol] | 0.98
CCCC(=O)N1CCCN(c2nc(N)c3cc(OC)c(OC)cc3n2)CC1 [Bunazosin] | 0.95
CC1(C)O[C@@H]2C[C@H]3[C@@H]4C[C@H](F)C5=CC(=O)C=C[C@]5(C)[C@H]4[C@@H](O)C[C@]3(C)[C@]2(C(=O)CO)O1 [flunisolide] | 0.5
CN1CCC(=C2c3ccccc3CCc3cccnc32)CC1 [azatadine] | 0.1
CCOC(=O)OC(C)OC(=O)[C@@H]1N2C(=O)[C@@H](NC(=O)[C@H](N)c3ccccc3)[C@H]2SC1(C)C (stereo partly shown) [bacampicillin] | 0.2

same assay, conditions: fraction bound to plasma protein; small molecule dataset, sheet 1-SM, Set Dtr; ref Ingle et al.; cited from earlier work

Compound | PPB (fb)
C[C@H](CCC(=O)O)[C@H]1CC[C@H]2[C@@H]3[C@@H](O)C[C@@H]4C[C@H](O)CC[C@]4(C)[C@H]3CC[C@]12C [ursodiol] | 0.97
CCOC(=O)Nc1ccc(NCc2ccc(F)cc2)nc1N [Flupirtine] | 0.82
CC1(C)S[C@@H]2[C@H](NC(=O)[C@H](NC(=O)N3CCNC3=O)c3ccccc3)C(=O)N2[C@H]1C(=O)O [Azlocillin] | 0.32
Cc1onc(-c2c(F)cccc2Cl)c1C(=O)N[C@@H]1C(=O)N2[C@@H]1SC(C)(C)[C@@H]2C(=O)O [Flucloxacillin] | 0.95
CC(C)n1c(/C=C/C(O)CC(O)CC(=O)O)c(-c2ccc(F)cc2)c2ccccc21 (stereo not shown) [Fluvastatin] | 0.99
COc1ccc(C[C@@H]2c3cc(OC)c(OC)cc3CC[N@+]2(C)CCC(=O)OCCCCCOC(=O)CC[N@@+]2(C)CCc3cc(OC)c(OC)cc3[C@H]2Cc2ccc(OC)c(OC)c2)cc1OC [Cisatracurium] | 0.38
CCCCCCCN(CC)CCCC(O)c1ccc(NS(C)(=O)=O)cc1 (stereo not shown) [Ibutilide] | 0.4
C#C[C@]1(O)CC[C@H]2[C@@H]3CCC4=CC(=O)CC[C@@H]4[C@H]3CC[C@@]21CC [Levonorgestrel] | 0.975
CC(=O)Oc1ccccc1C(=O)O [Aspirin] | 0.43
C=CC(N)CCC(=O)O (stereo not shown) [vigabatrin] | 0
Cn1nnnc1SCC1=C(C(=O)O)N2C(=O)[C@@H](NC(=O)[C@H](O)c3ccccc3)[C@H]2SC1 [Cefamandole] | 0.74
CN1CCCC(n2nc(Cc3ccc(Cl)cc3)c3ccccc3c2=O)CC1 (stereo not shown) [Azelastine] | 0.85
CC(=O)Nc1nnc(S(N)(=O)=O)s1 [Acetazolamide] | 0.92
CC1(C)O[C@@H]2[C@@H](CO[C@@]3(COS(N)(=O)=O)OC(C)(C)O[C@@H]23)O1 [topiramate] | 0.15
CC1=C(C/C=C(\C)CCCC(C)CCCC(C)CCCC(C)C)C(=O)c2ccccc2C1=O (stereo not shown) [vitamin-K] | 0.9
C[C@]12CC[C@@H]3c4ccc(O)cc4CC[C@H]3[C@@H]1CC[C@@H]2O [Estradiol] | 0.984
CC(=O)Nc1c(I)c(C(=O)O)c(I)c(N(C)C(C)=O)c1I [Metrizoate] | 0

same assay, conditions: fraction bound to plasma protein; small molecule dataset, sheet 1-SM; ref Ingle et al.; cited from earlier work

Compound | PPB (fb)
CSc1ccc(/C=C2/C(C)=C(CC(=O)O)c3cc(F)ccc32)cc1 [Sulindac sulfide] | 0.94
COc1cnc2ccccc2c1C(=O)NC1C(=O)N2C1SC(C)(C)C2C(=O)O (stereo not shown) [penicillin76] | 0.57
Nc1nc2c(c(=O)[nH]1)N(C=O)C(CNc1ccc(C(=O)N[C@@H](CCC(=O)O)C(=O)O)cc1)CN2 (stereo partly shown) [leucovorin] | 0.91
CC(C)(C)NCC(O)c1cc(O)cc(O)c1 (stereo not shown) [Terbutaline] | 0.23
CC(Oc1ccccc1Cl)C(=O)NC1C(=O)N2C1SC(C)(C)C2C(=O)O (stereo not shown) [penicillin55] | 0.96
CC(Oc1ccc2ccccc2c1)C(=O)NC1C(=O)N2C1SC(C)(C)C2C(=O)O (stereo not shown) [penicillin69] | 0.95
N[C@@H](CC(=O)N1CCn2c(nnc2C(F)(F)F)C1)Cc1cc(F)c(F)cc1F [Sitagliptin] | 0.38
CCCC(CCC)C(=O)O [Valproic Acd] | 0.9
CCCCC(=O)N(Cc1ccc(-c2ccccc2-c2nnn[nH]2)cc1)[C@H](C(=O)O)C(C)C [Valsartan] | 0.95
COC(C(=O)NC1C(=O)N2C1SC(C)(C)C2C(=O)O)c1cccc(F)c1 (stereo not shown) [penicillin45] | 0.65
CCCCOCC(=O)NC1C(=O)N2C1SC(C)(C)C2C(=O)O (stereo not shown) [penicillin7] | 0.59
CC1(C)SC2C(NC(=O)c3ccc4ccccc4c3)C(=O)N2C1C(=O)O (stereo not shown) [penicillin65] | 0.96
COc1cc(Cc2cnc(N)nc2N)cc(OC)c1OC [Trimethoprim] | 0.46
CCCc1nc(C(C)(C)O)c(C(=O)O)n1Cc1ccc(-c2ccccc2-c2nnn[nH]2)cc1 [Olmesartan] | 0.99
OCc1cc(C(O)CNCCCCCCOCCCCc2ccccc2)ccc1O (stereo not shown) [salmeterol] | 0.96
CC1(C)SC2C(NC(=O)c3ccccc3-c3ccccc3)C(=O)N2C1C(=O)O (stereo not shown) [penicillin16] | 0.91
COc1ccc(CCN(C)CCCC(C#N)(c2cc(OC)c(OC)c(OC)c2)C(C)C)cc1OC (stereo not shown) [gallopamil] | 0.9
[H]/N=C(/N)NS(=O)(=O)c1ccc(N)cc1 [sulfaguanidine] | 0.08
COc1ccc2cc(CCC(C)=O)ccc2c1 [nabumetone] | 0.99
CC(C(=O)O)c1cccc(Oc2ccccc2)c1 (stereo not shown) [fenoprofen] | 0.99
N[C@@H](Cc1cc(I)c(Oc2ccc(O)c(I)c2)c(I)c1)C(=O)O [liothyronine] | 0.98
NC(=O)OCC(COC(N)=O)c1ccccc1 [felbamate] | 0.23
CC(=O)Nc1ccc(OCC(O)CNC(C)C)cc1 (stereo not shown) [practolol] | 0.3
CC(Oc1ccc(Cl)cc1)C(=O)NC1C(=O)N2C1SC(C)(C)C2C(=O)O (stereo not shown) [penicillin42] | 0.92
COc1ncnc(NS(=O)(=O)c2ccc(N)cc2)c1OC [sulfadoxine] | 0.94
Cc1ncc([N+](=O)[O-])n1CC(O)CCl (stereo not shown) [ornidazole] | 0.15
CO[C@H]1/C=C/O[C@@]2(C)Oc3c(C)c(O)c4c(O)c(c(/C=N/N5CCN(C)CC5)c(O)c4c3C2=O)NC(=O)/C(C)=C\C=C\[C@H](C)[C@H](O)[C@@H](C)[C@@H](O)[C@@H](C)[C@H](OC(C)=O)[C@@H]1C [Rifampin] | 0.77
CCCc1c2oc(C(=O)O)cc(=O)c2cc2c(=O)cc(C(=O)O)n(CC)c12 [nedocromil] | 0.8
COc1cnc(NS(=O)(=O)c2ccc(N)cc2)nc1 [sulfametoxydiazine] | 0.83
CC(Oc1c(Cl)cccc1Cl)C(=O)NC1C(=O)N2C1SC(C)(C)C2C(=O)O (stereo not shown) [penicillin57] | 0.96

same assay, conditions: human, plasma; cited from earlier work

Compound | PPB (fb)
CCNC(=O)[C@@H]1CCCN1C(=O)[C@H](CCCNC(=N)N)NC(=O)[C@H](CC(C)C)NC(=O)[C@@H](COC(C)(C)C)NC(=O)[C@H](Cc1ccc(O)cc1)NC(=O)[C@H](CO)NC(=O)[C@H](Cc1c[nH]c2ccccc12)NC(=O)[C@H](Cc1cnc[nH]1)NC(=O)[C@@H]1CCC(=O)N1 [buserelin] | 0.15

same assay, conditions: plasma; cited from earlier work

Compound | PPB (fb)
CCC(C)C1OC2(CCC1C)CC1CC(C/C=C(\C)C(OC3CC(OC)C(OC4CC(OC)C(O)C(C)O4)C(C)O3)C(C)/C=C/C=C3\COC4C(O)C(C)=CC(C(=O)O1)C34O)O2 (stereo not shown) [ivermectin] | 0.93
COc1ccc2c3c1O[C@H]1[C@@H](O)C=C[C@H]4[C@@H](C2)N(C)CC[C@@]341 [Codeine] | 0.21
CCC1(CC)C(=O)NCC(C)C1=O (stereo not shown) [methyprylon] | 0.6
CCC(OC(C)=O)C(CC(C)N(C)C)(c1ccccc1)c1ccccc1 (stereo not shown) [laam] | 0.8
NC(=O)C[S+]([O-])C(c1ccccc1)c1ccccc1 (stereo not shown) [modafinil] | 0.6
CCO [ethanol] | 0
C#C[C@]1(O)CC[C@H]2[C@@H]3CCc4cc(OS(=O)(=O)O)ccc4[C@H]3CC[C@@]21C [Ethinylestradiol-3-Sulfate] | 0.99
CCN(CC)C(=O)N[C@H]1C=C2c3cccc4[nH]cc(c34)C[C@H]2N(C)C1 [lisuride] | 0.7
CO[C@H]1[C@@H](O)C[C@H](O[C@H]2[C@@H](O)C[C@H](O[C@H]3[C@@H](O)C[C@H](O[C@H]4CC[C@@]5(C)[C@H](CC[C@@H]6[C@@H]5C[C@@H](O)[C@]5(C)[C@@H](C7=CC(=O)OC7)CC[C@]65O)C4)O[C@@H]3C)O[C@@H]2C)O[C@@H]1C [metildigoxin] | 0.15
Fluorescein | 0.87
Cc1nnc2n1-c1ccc(Cl)cc1C(c1ccccc1)=NC2 [Alprazolam] | 0.72
CC[C@@H](CO)NC(=O)[C@@H]1C=C2c3cccc4[nH]cc(c34)C[C@H]2N(C)C1 [methylergonovine] | 0.35
trichloroethanol | 0.35
